Measurements taken from ChEMBL document CHEMBL1201862, “PubChem BioAssay data set” (2004).
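Where inhibition never reached the appropriate level, the endpoint shown equals the highest concentration tested. Otherwise, values were interpolated linearly from a five-concentration, 48-hour dose response in 96-well plates. GI50 is the concentration that inhibits growth by half.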 Activity calls are given as the source filed them. Cut-off read from the data, not from the text of the source: active = GI50 up to about 1.1 µM and inactive = higher.

Key:
Test in all cases: NCI-60 cell line screen, 48 h
[1] = tested on: MCF7
[2] = tested on: OVCAR-3
[3] = tested on: NCI-H460
[4] = tested on: SK-MEL-2
[5] = tested on: SW-620
[6] = tested on: SF-268
[7] = tested on: SK-OV-3
[8] = tested on: PC-3
[9] = tested on: CCRF-CEM
[10] = tested on: CAKI-1
[11] = tested on: HOP-62
[12] = tested on: KM12
[13] = tested on: MDA-N
[14] = tested on: UO-31
[15] = tested on: K562
[16] = tested on: COLO 205
[17] = tested on: ACHN
[18] = tested on: RPMI-8226
[19] = tested on: HL-60
[20] = tested on: Malme-3M

Row | SMILES | GI50 [1] | GI50 [2] | GI50 [3] | GI50 [4] | GI50 [5] | GI50 [6] | GI50 [7] | GI50 [8] | GI50 [9] | GI50 [10] | GI50 [11] | GI50 [12] | GI50 [13] | GI50 [14] | GI50 [15] | GI50 [16] | GI50 [17] | GI50 [18] | GI50 [19] | GI50 [20]
1 | COc1ccc2c(c1)c1nn(CCN(C)C)c3ccc4c(=O)n(CCN(C)C)c(=O)n2c4c13 | < 0.0158 µM (active) | 0.018 µM (active) | < 0.01 µM (active) | 0.0323 µM (active) | < 0.01 µM (active) | < 0.01 µM (active) | < 0.0157 µM (active) | 0.0103 µM (active) | < 0.01 µM (active) | 0.0682 µM (active) | < 0.01 µM (active) | < 0.0142 µM (active) | < 0.0325 µM (active) | 0.0255 µM (active) | < 0.019 µM (active) | < 0.0143 µM (active) | < 0.01 µM (active) | < 0.01 µM (active) | 0.042 µM (active) | 0.0904 µM (active)
2 | CCCCCC(=O)Nc1[nH]nnc1C#N | > 100 µM (inactive) | > 100 µM (inactive) | > 100 µM (inactive) | > 100 µM (inactive) | > 100 µM (inactive) | > 100 µM (inactive) | > 100 µM (inactive) | > 100 µM (inactive) | > 100 µM (inactive) | > 100 µM (inactive) | > 100 µM (inactive) | > 100 µM (inactive) | > 100 µM (inactive) | > 100 µM (inactive) | > 100 µM (inactive) | > 100 µM (inactive) | > 100 µM (inactive) | > 100 µM (inactive) | > 100 µM (inactive) | > 100 µM (inactive)
3 | O=C1C[C@@H](Sc2ccccc2)C2(OCCO2)C2ON3CCCC[C@H]3[C@H]12 (stereo not given in full) | 6.32 µM (inactive) | 13 µM (inactive) | 9.66 µM (inactive) | 18.1 µM (inactive) | 3.63 µM (inactive) | 7.55 µM (inactive) | 41.5 µM (inactive) | 7.36 µM (inactive) | 0.92 µM (active) | 7.71 µM (inactive) | 16.5 µM (inactive) | 4.48 µM (inactive) | 13.2 µM (inactive) | 3.75 µM (inactive) | 2.11 µM (inactive) | 7.8 µM (inactive) | 2.49 µM (inactive) | 3.07 µM (inactive) | 1.67 µM (inactive) | 8.41 µM (inactive)
4 | NC(=O)c1nnsc1N/N=C/c1ccc([N+](=O)[O-])cc1 | > 100 µM (inactive) | 55.2 µM (inactive) | > 100 µM (inactive) | > 100 µM (inactive) | > 100 µM (inactive) | > 100 µM (inactive) | > 100 µM (inactive) | > 100 µM (inactive) | > 100 µM (inactive) | > 100 µM (inactive) | > 100 µM (inactive) | > 100 µM (inactive) | > 100 µM (inactive) | 77.1 µM (inactive) | > 100 µM (inactive) | > 100 µM (inactive) | > 100 µM (inactive) | > 100 µM (inactive) | 73.5 µM (inactive) | > 100 µM (inactive)
5 | CCOP(=O)(OCC)C(NC(=O)C(C(F)(F)F)C(F)(F)F)c1ccccc1 (stereo not given) | 97.9 µM (inactive) | > 100 µM (inactive) | > 100 µM (inactive) | > 100 µM (inactive) | > 100 µM (inactive) | > 100 µM (inactive) | > 100 µM (inactive) | > 100 µM (inactive) | 36.6 µM (inactive) | > 100 µM (inactive) | > 100 µM (inactive) | > 100 µM (inactive) | > 100 µM (inactive) | 49.9 µM (inactive) | 61.2 µM (inactive) | > 100 µM (inactive) | > 100 µM (inactive) | 21.7 µM (inactive) | 24.6 µM (inactive) | > 100 µM (inactive)
6 | C[C@@H]1O[C@@H]2OCC[C@@H]2C2=C1C(=O)c1ccccc1C2=O | 1.25 µM (inactive) | 3.08 µM (inactive) | 16.7 µM (inactive) | 11 µM (inactive) | 4.04 µM (inactive) | 4.97 µM (inactive) | 28.4 µM (inactive) | 3.65 µM (inactive) | 6.87 µM (inactive) | 15.2 µM (inactive) | 17.3 µM (inactive) | 15.2 µM (inactive) | 1.85 µM (inactive) | 10.8 µM (inactive) | 10.1 µM (inactive) | 23.9 µM (inactive) | 12.2 µM (inactive) | 7.23 µM (inactive) | 3.51 µM (inactive) | 2.19 µM (inactive)
7 | NC(CS)C(=O)NCCNc1ccc(NCCNC(=O)C(N)CS)c2c1C(=O)c1c(O)ccc(O)c1C2=O (stereo not given) | 0.00402 µM (active) | 0.405 µM (active) | < 0.001 µM (active) | 0.427 µM (active) | 0.0292 µM (active) | 0.0246 µM (active) | 0.0124 µM (active) | 0.126 µM (active) | 0.00149 µM (active) | 0.0243 µM (active) | 0.00361 µM (active) | 0.135 µM (active) | 0.359 µM (active) | 0.0313 µM (active) | 0.0468 µM (active) | 0.422 µM (active) | 0.00865 µM (active) | 0.0417 µM (active) | 0.00175 µM (active) | 0.0653 µM (active)
8 | COc1ccc(CNc2ccn(C3OC(CO)C(O)C3O)c(=O)n2)cc1 (stereo not given) | 72.9 µM (inactive) | > 100 µM (inactive) | 78.7 µM (inactive) | > 100 µM (inactive) | > 100 µM (inactive) | > 100 µM (inactive) | > 100 µM (inactive) | > 100 µM (inactive) | 31.3 µM (inactive) | > 100 µM (inactive) | > 100 µM (inactive) | 45.9 µM (inactive) | 49.9 µM (inactive) | 81.7 µM (inactive) | 34.8 µM (inactive) | > 100 µM (inactive) | > 100 µM (inactive) | 86.9 µM (inactive) | 27.2 µM (inactive) | > 100 µM (inactive)
9 | CC(=O)Nc1nc(C)c(S(=O)(=O)NC(=O)N2c3ccccc3CCc3ccccc32)s1 | > 100 µM (inactive) | > 100 µM (inactive) | > 100 µM (inactive) | > 100 µM (inactive) | > 100 µM (inactive) | > 100 µM (inactive) | > 100 µM (inactive) | > 100 µM (inactive) | 44.6 µM (inactive) | > 100 µM (inactive) | > 100 µM (inactive) | > 100 µM (inactive) | > 100 µM (inactive) | > 100 µM (inactive) | > 100 µM (inactive) | > 100 µM (inactive) | > 100 µM (inactive) | > 100 µM (inactive) | > 100 µM (inactive) | > 100 µM (inactive)
10 | Nc1ccc(Cc2ccc(N)c(C(=O)O)c2)cc1C(=O)O | > 100 µM (inactive) | > 100 µM (inactive) | > 100 µM (inactive) | > 100 µM (inactive) | > 100 µM (inactive) | > 100 µM (inactive) | > 100 µM (inactive) | > 100 µM (inactive) | > 100 µM (inactive) | > 100 µM (inactive) | > 100 µM (inactive) | > 100 µM (inactive) | > 100 µM (inactive) | > 100 µM (inactive) | > 100 µM (inactive) | > 100 µM (inactive) | > 100 µM (inactive) | > 100 µM (inactive) | > 100 µM (inactive) | > 100 µM (inactive)
11 | CC(C)(C)OC[C@H](O)CC#N | > 100 µM (inactive) | > 100 µM (inactive) | > 100 µM (inactive) | > 100 µM (inactive) | > 100 µM (inactive) | > 100 µM (inactive) | > 100 µM (inactive) | > 100 µM (inactive) | > 100 µM (inactive) | > 100 µM (inactive) | > 100 µM (inactive) | > 100 µM (inactive) | > 100 µM (inactive) | > 100 µM (inactive) | > 100 µM (inactive) | > 100 µM (inactive) | > 100 µM (inactive) | > 100 µM (inactive) | > 100 µM (inactive) | > 100 µM (inactive)
12 | COC(=O)[C@H](Cc1ccccc1)NC(=O)N1CCN(C(=O)N[C@@H](Cc2ccccc2)C(=O)OC)CCN(C(=O)N[C@@H](Cc2ccccc2)C(=O)OC)CC1 | > 100 µM (inactive) | > 100 µM (inactive) | > 100 µM (inactive) | > 100 µM (inactive) | > 100 µM (inactive) | > 100 µM (inactive) | > 100 µM (inactive) | > 100 µM (inactive) | > 100 µM (inactive) | > 100 µM (inactive) | > 100 µM (inactive) | > 100 µM (inactive) | > 100 µM (inactive) | > 100 µM (inactive) | > 100 µM (inactive) | > 100 µM (inactive) | > 100 µM (inactive) | > 100 µM (inactive) | > 100 µM (inactive) | > 100 µM (inactive)
13 | C/C(Sc1ccccc1)=C1/CCCN(Cc2ccccc2)C1 | 20.2 µM (inactive) | 16.6 µM (inactive) | 21.8 µM (inactive) | 17.2 µM (inactive) | 28.9 µM (inactive) | 36.1 µM (inactive) | 32.7 µM (inactive) | 21.9 µM (inactive) | 20.2 µM (inactive) | 24.9 µM (inactive) | 20.6 µM (inactive) | 20.1 µM (inactive) | 22.6 µM (inactive) | 15.3 µM (inactive) | 18 µM (inactive) | 17.5 µM (inactive) | 31.4 µM (inactive) | 14.5 µM (inactive) | 13.7 µM (inactive) | 14.3 µM (inactive)
14 | CC(=O)Nc1ccc(S(=O)(=O)[N-]C2C(=O)c3ccccc3C(=O)C2[n+]2ccccc2)cc1 (stereo not given) | 16.8 µM (inactive) | 16.4 µM (inactive) | 29.3 µM (inactive) | 12.5 µM (inactive) | 17.1 µM (inactive) | 18.5 µM (inactive) | 94.8 µM (inactive) | 17.1 µM (inactive) | 15.1 µM (inactive) | > 100 µM (inactive) | 17.9 µM (inactive) | 14.6 µM (inactive) | 17.2 µM (inactive) | 9.06 µM (inactive) | 23.3 µM (inactive) | > 100 µM (inactive) | 15.8 µM (inactive) | 17.5 µM (inactive) | 13.8 µM (inactive) | 12.4 µM (inactive)
